According to patent US9115170B2, “Methods and compositions related to internalizing RGD peptides” (Sanford-Burnham Medical Research Institute, priority 2008, dated 2015):

Columns and labels:
[1] = test system: orthotopic 22Rv-1 human prostate cancer xenografts; assay: Confocal microscopy of tumors after injection of peptides, phage and micelles; assay type: in vivo, mice; conditions: free peptides 2 hrs, phage 15 min, micelles 3 hrs circulation
Description: (§1) Statistical analysis was performed with Student's t-test.

PPC1 cells [2] = assay: In vitro phage binding assay; assay type: cell-based, human; conditions: for effect of trypsin treatment on binding to PPC1 cells: treatment with trypsin; for phage binding to cells: PPC1 cells, 1 hour at 4° C., phage-displayed peptide
Description: (§2) PPC1 cells were incubated with the phage for 1 hour at 4° C. (A) or 37° C. (B). Phage that bound to the cell surface (A) or those that had internalized into the cells (B) were rescued for titration.
(§3) FIGS. 8A and 8B show the binding (A) and internalization (B) of phage displaying CG7C (control phage), iRGD1, and iRGD1 mutants that carry an alanine substitution for each amino acid (underlined) (SEQ ID NOs:1 and 304-310). PPC1 cells were incubated with the phage for 1 hour at 4° C. (A) or 37° C. (B). Phage that bound to the cell surface (A) or those that internalized into the cells were rescued for titration.
(§4) PPC1 cells were incubated with the phage for 1 hour at 4° C. (A) or 37° C. (B). Phage that bound to the cell surface (A) or those that had internalized into the cells were rescued for titration.
(§5) Suspended cells (10^6 cells in DMEM containing 1% BSA) were incubated with 10^8 pfu/ml of T7 phage for 1 hr at 4° C. The cells were washed 4 times with the binding buffer, lysed with lysogeny broth containing 1% NP-40, and titrated. Phage internalization assays used the same procedure, except that the cells were incubated with phage at 37° C., and that an acidic buffer (500 mM sodium chloride, 0.1 M glycine, 1% BSA, pH 2.5) was substituted for the binding buffer in the second wash. Inhibitors of binding and internalization were added 20 min prior to incubation with phage. Non-infectious phage were prepared by treating phage with UV for 8 min in DMEM containing 1% BSA. The resulting UV-inactivated phage particles expressing about 200 peptides per particle were used as multivalent inhibitors. Free synthetic peptides, mouse antibodies against human α1, α2, αvβ3, αvβ5, α5β1, α4, or αv integrins and integrin subunits (Chemicon), goat anti-rat neuropilin-1 (R&D Systems, Minneapolis, Minn.), with mouse and a goat IgG isotype controls (Abcam) were also tested.

αv integrins = conditions: Koivunen et al. 1993, 1995; cited from earlier work
PPC1 cells [3] = assay: In vitro phage internalization assay; assay type: cell-based, human; conditions: for phage internalization into cells: 1 hour at 37° C., acid wash, phage-displayed peptide
Description: as §2, §3, §4
To assess the internalization, the phage that bound to the cell surface were removed by washing the cells with acid buffer before phage titration. […] Statistical analysis was performed with Student's t-test. n=3, error bars represent s.d.
Mice were maintained in accordance with institutional guidelines and the animal experiments were approved by the Animal Research Committees at University of California, Santa Barbara and San Francisco. We used transgenic tumor mice (Bardeesy and DePinho, (2002); Arbeit et al., Progressive squamous epithelial neoplasia in K14-human papillomavirus type 16 transgenic mice. J. Virol. 68, 4358-4368 (1994); Hanahan, Heritable formation of pancreatic β-cell tumors in transgenic mice expressing recombinant insulin/simian virus 40 oncogenes. Nature 315, 115-122 (1985)) and xenograft tumors generated by injecting BALB/c nude mice (Harlan Sprague Dawley, Indianapolis, Ind.) with 10^6 human cancer cells orthotopically, intracardiacly or into the brain and tibia. […] Phage homing studies in vivo and cell binding studies in vitro (Zhang et al., (2006)), immunofluorescence (Karmali et al. (2008)) and flow cytometry (Sugahara et al., Hyaluronan oligosaccharides induce CD44 cleavage and promote cell migration in CD44-expressing tumor cells. J. Biol. Chem. 278, 32259-32265 (2003)) were done as described. Whole body imaging was performed 3 hrs after injecting the Cy7-labelled micelles with the Odyssey Infrared Imaging System (LI-COR Biosciences, Lincoln, Nebr.). In phage internalization assays, the cells were treated with 10^9 plaque forming units (pfu) of phage for 1 hr at 37° C., washed with an acidic buffer (glycine-HCl, pH 2.5) to remove and inactivate phage bound to the cell surface, and lysed for phage titration. Peptide internalization was studied by incubating cells with 20 μM of FAM-labelled peptide for 90 min at 37° C. […] To inhibit the binding and/or internalization of the phage, synthetic peptides or phage rendered non-infectious by UV-irradiation were added to the cells 20 min before incubation with the test phage. FAM-labelled peptides in tissues were quantified by measuring the fluorescence with Image J software. Student's t-test and one-way analysis of variance (ANOVA) followed by a suitable post hoc t-test were used for statistical analysis (Table 3).
as §5, with “Free synthetic peptides, mouse antibodies against human α1, α2, αvβ3, αvβ5, α5β1, α4, or αv integrins and integrin subunits (Chemicon), goat anti-rat neuropilin-1 (R&D Systems, Minneapolis, Minn.), with mouse and a goat IgG isotype controls (Abcam) were also tested.” left out

PPC1 cells [4] = assay: Confocal microscopy of cells incubated with phage; assay type: cell-based, human
Excerpt: Phage bound to the cell surface were removed by washing the cells with a acidic buffer, and internalized phage were rescued and titrated.
The cells were stained for phage, neuropilin-1, and nuclei. The right panel is a high magnification view of the dotted area in the left panel. […] In almost all tumor ducts examined, αv integrins were positive. […] Scale bars=50 μm.
The cells were stained for phage (arrowed), neuropilin-1 (distal and flanking), and nuclei (central mass). The right panel of […] (SEQ ID NO:298) phage is a high magnification view of the dotted area in the left panel. […] Scale bars=10 μm.
Tissue sections were processed as described (Karmali et al. (2008)). Cells (2×10^5 cells) were grown on collagen I-coated coverslips (BD Biosciences, San Jose, Calif.) overnight, and incubated with 10^8 pfu/ml of T7 phage for 30 min. The cells were fixed in 4% paraformaldehyde, and stained with antibodies and DAPI (Molecular Probes, Eugene, Oreg.). The primary antibodies were rat anti-mouse CD31 monoclonal antibody (BD Biosciences), and rabbit anti-human αv integrin (Chemicon, Temecula, Calif.), rabbit anti-human neuropilin-1 (Chemicon), mouse anti-human neuropilin-1 (Miltenyi Biotec, Auburn, Calif.), and rabbit anti-T7 phage polyclonal antibodies. […]

PPC1 cells [5] = assay: Inhibition of iRGD phage internalization into PPC1 cells; assay type: cell-based, human; conditions: 37° C.; inhibitor added before test phage
Description: (§6) Phage that bound to the cell surface were titered. B, PPC1 cells were treated as described in A except that they were co-incubated with iRGD1 or CG7C phage at 37° C. The internalized phage were rescued for titering as described in the legend for FIG. 5A.
(§7) A, PPC1 cells were pre-treated with or without series of anti-integrin antibodies, or with normal mouse IgG as a control, for 30 min at 4° C., followed by incubation with iRGD1 phage or CG7C control phage for 1 hour at 4° C. (A) or 37° C. (B). Phage that bound to the cell surface (A) or those that internalized into the cells (B) were rescued and titrated.
(§8) Statistical analyses were performed with ANOVA (a, b, d) or Student's t-test (c, e).
(§9) Suspended cells (10^6 cells in DMEM containing 1% BSA) were incubated with 10^8 pfu/ml of T7 phage for 1 hr at 4° C. The cells were washed 4 times with the binding buffer, lysed with lysogeny broth containing 1% NP-40, and titrated. Phage internalization assays used the same procedure, except that the cells were incubated with phage at 37° C., and that an acidic buffer (500 mM sodium chloride, 0.1 M glycine, 1% BSA, pH 2.5) was substituted for the binding buffer in the second wash. Inhibitors of binding and internalization were added 20 min prior to incubation with phage. Non-infectious phage were prepared by treating phage with UV for 8 min in DMEM containing 1% BSA. […]

M21 cells = assay: CRGDK phage binding and internalization, M21 cells; assay type: cell-based, human
Description: as §8, §5

PPC1 cells [6] = assay: Inhibition of iRGE phage internalization within PPC1 cells; assay type: cell-based, human; conditions: non-infectious phage as inhibitor
Description: as §8, §5

[7] = test system: pancreatic ductal adenocarcinoma (PDAC) tumors; assay: In vivo homing of FAM-labelled peptide to PDAC tumors; set-up: species or system mice; conditions: for effect of excess unlabelled peptide on accumulation of FAM-iRGD in tumors: 10-fold excess injected 30 min before FAM-iRGD
Description: FIGS. 3A and 3B show tumor homing of iRGD1 peptide into murine pancreatic carcinoma. A, 200 μg of […] iRGD1 peptide was injected through the tail vein into transgenic mice with pancreatic ductal adenocarcinoma (PDAC) and the peptide was allowed to circulate for 4.5 hrs. B, An excess of non-labeled iRGD1 (2 mg/mouse) was injected into the PDAC mice 30 min prior to the injection of the […] iRGD1 peptide as described in A. Shown are harvested organs observed under UV light (left) and white light (right).
Approximately 200 μg of FAM-iRGD1 was injected into mice bearing PDACs and allowed to circulate for 15 min (A), 30 min (B), 2 hrs (C) and 4.5 hrs (D). The nuclear staining with DAPI and vascular endothelial cell staining with an anti-CD31 antibody, respectively are shown. Note that at 15 (A) to 30 min (B) post-injection of FAM-iRGD1, the dye stays in the vessels (arrows) or in the cells surrounding the vessels (A, arrowheads in window at the right upper corner), but no vascular staining with the peptides is observed after 2 hrs (C, arrow) or 4.5 hrs (D, arrow). At 30 min post peptide injection, the peptide fluorescence appears in tumor glands (B, main panel and upper right corner inset); some individual cells within the tumor are strongly positive after 2 hrs (C, asterisks) and 4.5 hrs (D, asterisk).
as §1
Approximately 200 μg of […] iRGD1 peptide (FAM-iRGD1) was injected through the tail vein into immuno-deficient mice bearing xenograft of PPC1 human prostate carcinoma, MIA PaCa-2 human pancreatic carcinoma, or MDA-MB-435 human breast carcinoma and was allowed to circulate for 4.5 hrs (FIG. 2). […] Confocal microscopy of PDAC tumor sections from animals injected with FAM-iRGD1 indicated time-dependent in vivo homing dynamics for this peptide. […] The peptide fluorescence associated with the tumors cells was condensed into the perinuclear area of the tumor cells (FIGS. 4C and 4D, asterisks).

PPC1 cells [8] = assay: Inhibition of iRGD phage binding to PPC1 cells; assay type: cell-based, human; conditions: 4° C.; inhibitor added before test phage
Description: as §6, §7, §9

M21 human melanoma cells = assay: iRGD phage binding to M21 cells; assay type: cell-based
Description: as §5

PPC1 cells [9] = assay: Inhibition of trypsin-treated iRGD phage binding to PPC1 cells; assay type: cell-based, human; conditions: 4° C.; non-infectious phage as inhibitor
Description: as §8, §5

PPC1 cells [10] = assay: Inhibition of CRGDK phage binding to PPC1 cells; assay type: cell-based, human
Description: as §8, §5

CDCRGDCFC [RGD-4C]
distribution within tumor (confocal microscopy) [1]: accumulated only in and around tumor blood vessels | effect of trypsin treatment on binding to PPC1 cells (PPC1 cells [2]): no effect | affinity for αv integrins (αv integrins): strong affinity

CRG [CRG phage]
phage binding to cells (PPC1 cells [2]): did not | phage internalization into cells (PPC1 cells [3]): did not

CRGD [CRGD phage]
phage binding to cells (PPC1 cells [2]): did not | phage internalization into cells (PPC1 cells [3]): did not

CRGDC
distribution within tumor (confocal microscopy) [1]: accumulated only in and around tumor blood vessels | effect of trypsin treatment on binding to PPC1 cells (PPC1 cells [2]): no effect | affinity for αv integrins (αv integrins): strong affinity

CRGDGGPDC
co-localization with neuropilin-1 (confocal microscopy) (PPC1 cells [4]): did not co-localize | internalization into cells (confocal microscopy) (PPC1 cells [4]): nor did they internalize

CRGDK [CRGDK phage]
phage binding to cells (PPC1 cells [2]): bound to | internalization relative to iRGD phage (PPC1 cells [3]; 37° C.): more efficiently than iRGD phage | phage internalization into cells (PPC1 cells [3]): internalized | inhibition of iRGD phage internalization into PPC1 cells (PPC1 cells [5]): blocked | binding to M21 cells with different αv integrin expression levels (M21 cells): binds similarly | phage binding to M21 cells with minimal expression of neuropilin-1 (M21 cells): did not substantially bind | phage internalization into M21 cells with minimal expression of neuropilin-1 (M21 cells; 1 hour at 37° C.): did not substantially bind to or internalize | increase of binding by forced expression of neuropilin-1 (M21 cells; M21 cells transfected with neuropilin-1 cDNA): 3.5 fold | increase of internalization by forced expression of neuropilin-1 (M21 cells; M21 cells transfected with neuropilin-1 cDNA, not shown): 3.5 fold | internalization relative to iRGD phage (M21 cells; M21 cells, 1 hour at 37° C.): reversed | inhibition of iRGE phage internalization within PPC1 cells (PPC1 cells [6]): inhibited the internalization

CRGDKG [CRGDKG phage]
phage binding to cells (PPC1 cells [2]): bound | phage internalization into cells (PPC1 cells [3]): internalized

CRGDKGPDC [iRGD1]
effect of excess unlabeled peptide on accumulation of FAM-iRGD1 in PDAC tumors ([7]; 2 mg/mouse 30 min prior to FAM-iRGD1): inhibited the accumulation | effect of excess unlabelled peptide on accumulation of FAM-iRGD in tumors [7]: greatly reduced | inhibition of iRGD phage binding to PPC1 cells (PPC1 cells [8]): inhibited in a dose-dependent manner | binding to M21 cells that express both αvβ3 and αvβ5 (M21 human melanoma cells): bound | binding to M21 variants lacking expression of αvβ3 and αvβ5 (M21 human melanoma cells): did not

CRGDKGPEC [iRGD3]
phage binding to cells (PPC1 cells [2]): similar | phage internalization into cells (PPC1 cells [3]): similar

CRGDRGPDC [iRGD2]
phage binding to cells (PPC1 cells [2]): similar | phage internalization into cells (PPC1 cells [3]): similar

CRGEKGPDC [iRGE, reference compound]
effect of excess unlabelled peptide on accumulation of FAM-iRGD in tumors [7]: did not have the same effect

RPARPAR [RPARPAR phage]
inhibition of iRGD phage internalization into PPC1 cells (PPC1 cells [5]): blocked | inhibition of binding of trypsin-treated iRGD phage (PPC1 cells [9]): blocked | inhibition of CRGDK phage binding to PPC1 cells (PPC1 cells [10]): dose-dependently inhibited | inhibition of iRGE phage internalization within PPC1 cells (PPC1 cells [6]): inhibited the internalization
